29 molecules from publication PMC7587356, “High-Throughput Screening for Inhibitors of the SARS-CoV-2 Protease Using a FRET-Biosensor” (Molecules, 2020) can be followed below.

Structures can show the parent of a compound that is named as a salt. Where two headings read alike, the source gives them in different places.

The test addresses SARS-CoV-2 3CLpro (Severe acute respiratory syndrome coronavirus 2, UniProt P0DTD1). In words: biochemical. The format is biochemical. On the set-up: Replicate_1 / Replicate_2 / mean / mean (LOPAC_screen_w_protease): unit not given here. The following applies: for inhibition at 5 µM: 4 h.
Setting [1] is: sheet LOPAC_screen_w_protease, primary screen of LOPAC1280 at 5 µM with protease, mean of the two replicates.
The mark [2] stands for this setting: sheet LOPAC_screen_w_protease, primary screen of LOPAC1280 at 5 µM with protease, replicate 1.
Where [3] appears, read: sheet LOPAC_screen_w_protease, primary screen of LOPAC1280 at 5 µM with protease, replicate 2.
[4] abbreviates: LOPAC1280 primary screen with protease, 5 µM compound, mean of two replicates.
[5] abbreviates: LOPAC1280 primary screen with protease, 5 µM compound, replicate 1.
[6] abbreviates: LOPAC1280 primary screen with protease, 5 µM compound, replicate 2.
[7] abbreviates: LOPAC1280 primary screen with protease, 5 µM compound, mean of the two replicates.
Where [8] appears, read: sheet LOPAC_screen_w_protease, primary screen with protease, 5 µM, mean of two replicates, read-out: mean.
[9] abbreviates: sheet LOPAC_screen_w_protease, primary screen with protease, 5 µM, replicate 1, read-out: Replicate_1.
[10] abbreviates: sheet LOPAC_screen_w_protease, primary screen with protease, 5 µM, replicate 2, read-out: Replicate_2.
The mark [11] stands for this setting: sheet LOPAC_screen_w_protease, primary screen at 5 µM, mean of two replicates.
The mark [12] stands for this setting: sheet LOPAC_screen_w_protease, primary screen at 5 µM, replicate 1.
Where [13] appears, read: sheet LOPAC_screen_w_protease, primary screen at 5 µM, replicate 2.
Where [14] appears, read: sheet LOPAC_screen_w_protease, LOPAC1280 primary screen at 5 µM, with protease, mean of the two replicates, read-out: mean.
Setting [15] is: sheet LOPAC_screen_w_protease, LOPAC1280 primary screen at 5 µM, with protease, replicate 1, read-out: Replicate_1.
[16] abbreviates: sheet LOPAC_screen_w_protease, LOPAC1280 primary screen at 5 µM, with protease, replicate 2, read-out: Replicate_2.
Setting [17] is: sheet LOPAC_screen_w_protease, primary screen with protease, compound at 5 µM, mean of two replicates.
Setting [18] is: sheet LOPAC_screen_w_protease, primary screen with protease, compound at 5 µM, replicate 1.
Where [19] appears, read: sheet LOPAC_screen_w_protease, primary screen with protease, compound at 5 µM, replicate 2.

Molecule `CC(O)C(C)OC(=O)[C@@H]1C[C@@H]2c3cccc4c3c(cn4C(C)C)C[C@H]2N(C)C1.O=C(O)/C=C\C(=O)O` (some centres unmarked) [LY-53,857 maleate] gave a mean under setting [1] of 3.324. This molecule yielded a Replicate_1 under setting [2] of 1.754. In addition, under setting [3], the Replicate_2 worked out at 4.894.
In the case of `NCCCC(=O)O` [GABA], the “mean (LOPAC_screen_w_protease)” value under setting [4] was found to be 1.638. In addition, the “Replicate_1 (LOPAC_screen_w_protease)” value under setting [5] was 1.648. The “Replicate_2 (LOPAC_screen_w_protease)” value under setting [6] is 1.628.
Turning to `CCCCOc1cc(CC2CNC(=O)N2)ccc1OC` (centres unmarked) [Ro 20-1724], the “mean (LOPAC_screen_w_protease)” value under setting [7] stood at 1.901. The “Replicate_1 (LOPAC_screen_w_protease)” value under setting [5] was 0.9131. Moreover, under setting [6], the “Replicate_2 (LOPAC_screen_w_protease)” value turned out to be 2.888.
Take `CCCc1c(-c2ccc(O)cc2)nn(-c2ccc(O)cc2)c1-c1ccc(O)cc1`: the mean (sheet LOPAC_screen_w_protease, LOPAC1280 at 5 µM, mean of two replicates) came out at 1.246. The Replicate_1 (sheet LOPAC_screen_w_protease, LOPAC1280 at 5 µM, replicate 1) was found to be 3.0422. Further, the Replicate_2 (sheet LOPAC_screen_w_protease, LOPAC1280 at 5 µM, replicate 2) is -0.5503.
With `C[N+]1(C)CCc2cc3c(cc2[C@H]1[C@@H]1OC(=O)c2c1ccc1c2OCO1)OCO3.[Br-]` [(-)-Bicuculline methbromide, 1(S), 9(R)], the mean (sheet LOPAC_screen_w_protease, primary screen with protease, mean of two replicates) stood at 2.342. Further, the Replicate_1 (sheet LOPAC_screen_w_protease, primary screen with protease, replicate 1) is 1.484. For the setting “sheet LOPAC_screen_w_protease, primary screen with protease, replicate 2”, the Replicate_2 is given as 3.2.
`C[N+](C)(C)CCCCCC[N+](C)(C)C` [Hexamethonium bromide]: the inhibition at 5 µM is, setting by setting: under setting [8], 0.248%; under setting [9], 1.66%; under setting [10], -1.17%.
`CCCCNc1ccc(C(=O)OCCN(C)C)cc1` [Tetracaine hydrochloride]: the inhibition at 5 µM is, setting by setting: under setting [8], -0.191%; under setting [9], 0.225%; under setting [10], -0.607%.
For the molecule `Cc1ccc(OCC(O)C(C)NC(C)C)c2c1CCC2.Cl` (centres unmarked) [ICI 118,551 hydrochloride], the “mean (LOPAC_screen_w_protease)” value under setting [7] is listed as 1.851. Besides, the “Replicate_1 (LOPAC_screen_w_protease)” value under setting [5] stood at 3.391. The “Replicate_2 (LOPAC_screen_w_protease)” value under setting [6] amounted to 0.3114.
Take `Cl.c1ccc2sc(C3(N4CCCCC4)CCCCC3)cc2c1` [BTCP hydrochloride]: the “mean (LOPAC_screen_w_protease)” value under setting [7] was 2.11. For the same molecule, under setting [5], the “Replicate_1 (LOPAC_screen_w_protease)” value was 1.768. In addition, the “Replicate_2 (LOPAC_screen_w_protease)” value under setting [6] came to 2.452.
With `COC(=O)Nc1nc2ccc(C(=O)c3cccs3)cc2[nH]1` [Nocodazole], the inhibition at 5 µM is, setting by setting: (sheet LOPAC_screen_w_protease, LOPAC1280 primary screen with protease, 5 µM compound, mean of the two replicates, read-out: mean) 4.68%; (sheet LOPAC_screen_w_protease, LOPAC1280 primary screen with protease, 5 µM compound, replicate 1, read-out: Replicate_1) 2.87%; (sheet LOPAC_screen_w_protease, LOPAC1280 primary screen with protease, 5 µM compound, replicate 2, read-out: Replicate_2) 6.49%.
Take `CN1C[C@H](CNC(=O)OCc2ccccc2)C[C@@H]2c3cccc4c3c(cn4C)C[C@H]21` [Metergoline]: the inhibition at 5 µM reads like this: (sheet LOPAC_screen_w_protease, primary screen of LOPAC1280 at 5 µM with protease, mean of the two replicates, read-out: mean) 4.08%; (sheet LOPAC_screen_w_protease, primary screen of LOPAC1280 at 5 µM with protease, replicate 1, read-out: Replicate_1) 2.56%; (sheet LOPAC_screen_w_protease, primary screen of LOPAC1280 at 5 µM with protease, replicate 2, read-out: Replicate_2) 5.6%.
As to `CCCN(CCC)[C@@H]1CCc2c(F)ccc(O)c2C1.Cl` [R(+)-UH-301 hydrochloride], the “mean (LOPAC_screen_w_protease)” value under setting [4] amounted to 1.335. For the same molecule, the “Replicate_1 (LOPAC_screen_w_protease)” value under setting [5] was found to be 1.567. The “Replicate_2 (LOPAC_screen_w_protease)” value under setting [6] turned out to be 1.103.
Take `COc1[nH]c2ccc(F)cc2c1C(=O)OCC1CCN(CCNS(C)(=O)=O)CC1.NS(=O)(=O)O` [GR 125487 sulfamate salt]: the mean (sheet LOPAC_screen_w_protease, LOPAC1280 primary screen at 5 µM, with protease, mean of the two replicates) was found to be 0.6171. Also, the Replicate_1 (sheet LOPAC_screen_w_protease, LOPAC1280 primary screen at 5 µM, with protease, replicate 1) turned out to be 2.002. Further, the Replicate_2 (sheet LOPAC_screen_w_protease, LOPAC1280 primary screen at 5 µM, with protease, replicate 2) is listed as -0.7681.
As for `O=c1c(O)c(-c2ccc(O)c(O)c2)oc2cc(O)cc(O)c12` [Quercetin dihydrate], the inhibition at 5 µM by setting is: (read-out: Replicate_1 (LOPAC_screen_w_protease)) 2.76%; (read-out: Replicate_2 (LOPAC_screen_w_protease)) 1.18%.
In the case of `N[C@@H](Cc1c[nH]c2ccc(O)cc12)C(=O)O` [5-Hydroxy-L-tryptophan], the inhibition at 5 µM runs as follows: (sheet LOPAC_screen_w_protease, primary screen at 5 µM, mean of two replicates, read-out: mean (LOPAC screen with protease)) 14.5%; (sheet LOPAC_screen_w_protease, primary screen at 5 µM, replicate 1, read-out: Replicate_1 (LOPAC screen with protease)) 16.3%; (sheet LOPAC_screen_w_protease, primary screen at 5 µM, replicate 2, read-out: Replicate_2 (LOPAC screen with protease)) 12.8%.
Regarding `C[C@H](O)C(=O)C1=Nc2c(nc(N)[nH]c2=O)NC1` [Sepiapterin], the inhibition at 5 µM runs as follows: (sheet LOPAC_screen_w_protease, primary screen with protease, mean of two replicates, read-out: mean) 2.57%; (sheet LOPAC_screen_w_protease, primary screen with protease, replicate 1, read-out: Replicate_1) 2.59%; (sheet LOPAC_screen_w_protease, primary screen with protease, replicate 2, read-out: Replicate_2) 2.55%.
Consider `S=C(Nc1ccccc1)Nc1nccs1` [1-Phenyl-3-(2-thiazolyl)-2-thiourea], for which, under setting [11], the “mean (LOPAC screen with protease)” value is recorded as 7.407. In addition, under setting [12], the “Replicate_1 (LOPAC screen with protease)” value stood at 6.341. The “Replicate_2 (LOPAC screen with protease)” value under setting [13] amounted to 8.4724.
Take `CCCN1CCC[C@@H]2Cc3nc(N)ncc3C[C@H]21.Cl.Cl` [Quinelorane dihydrochloride]: under “sheet LOPAC_screen_w_protease, LOPAC1280 primary screen with protease, 5 µM compound, mean of the two replicates”, the mean stood at 6.182. This molecule displayed a Replicate_1 (sheet LOPAC_screen_w_protease, LOPAC1280 primary screen with protease, 5 µM compound, replicate 1) of 6.527. The molecule further had a Replicate_2 (sheet LOPAC_screen_w_protease, LOPAC1280 primary screen with protease, 5 µM compound, replicate 2) of 5.838.
Turning to `N[C@@H](Cc1c[nH]c2ccccc12)C(=O)O` [L-Tryptophan], the inhibition at 5 µM under setting [14] turned out to be 0.58%, the inhibition at 5 µM under setting [15] worked out at 2.12% and the inhibition at 5 µM under setting [16] was -0.955%.
`C[N+](C)(C)CCO.[Br-]` [Choline bromide] registered a Replicate_1 of 2.262, a Replicate_2 of 3.547 and a mean of 2.905.
In the case of `Br.CN1CCc2cc(O)cc3c2[C@H]1Cc1ccc(O)c(O)c1-3`, the “mean (LOPAC screen with protease)” value under setting [11] is on record as 100.809. In addition, the “Replicate_1 (LOPAC screen with protease)” value under setting [12] is 99.6837. Moreover, the “Replicate_2 (LOPAC screen with protease)” value under setting [13] came out at 101.934.
Under setting [17], `O=C1OC(=O)[C@H]2[C@@H]1[C@@H]1CC[C@H]2O1` [Norcantharidin] had a mean of 2.796. This molecule gave a Replicate_1 under setting [18] of 1.684. The molecule also registered a Replicate_2 under setting [19] of 3.909.
For `CC(C)NNC(=O)c1ccncc1.O=P(O)(O)O` [Iproniazid phosphate], the mean under setting [17] was determined as 2.591. Besides, under setting [18], the Replicate_1 worked out at 1.295. The molecule also displayed a Replicate_2 under setting [19] of 3.887.
As for `Nc1nc(Nc2ccccc2)nc2c1ncn2[C@@H]1O[C@H](CO)[C@@H](O)[C@H]1O` [2-Phenylaminoadenosine], the mean (sheet LOPAC_screen_w_protease, primary screen with protease, 5 µM, mean of two replicates) is listed as -0.1756. Besides, the Replicate_1 (sheet LOPAC_screen_w_protease, primary screen with protease, 5 µM, replicate 1) is -0.3497. The Replicate_2 (sheet LOPAC_screen_w_protease, primary screen with protease, 5 µM, replicate 2) is on record as -0.001377.
For the molecule `C/C=C1\C(=O)C[C@H]2[C@@H]3CCC4=CC(=O)CC[C@]4(C)[C@H]3CC[C@]12C` [(Z)-Gugglesterone], the mean under setting [1] amounted to 3.352. The same molecule showed a Replicate_1 under setting [2] of 5.164. The Replicate_2 under setting [3] is reported as 1.54.
For `S=C(NC1CCCCC1)N1CCC(c2cnc[nH]2)CC1` [Thioperamide maleate], the inhibition at 5 µM reads like this: under setting [8], -0.179%; under setting [9], -0.586%; under setting [10], 0.227%.
The matching figures for `CN1CCN(CCCN2c3ccccc3Sc3ccc(C(F)(F)F)cc32)CC1` [Trifluoperazine dihydrochloride]: 0.187%, 0.0814% and 0.293%.
With `O=C(O)CP(=O)(O)O` [Phosphonoacetic acid], the inhibition at 5 µM turned out to be 0.854% under setting [14], 0.755% under setting [15] and 0.954% under setting [16].
In the case of `Brc1c(NC2=NCCN2)ccc2nccnc12` [UK 14,304], the “Replicate_1 (LOPAC_screen_w_protease)” value is reported as 1.98, the “Replicate_2 (LOPAC_screen_w_protease)” value was found to be 2.1604 and the “mean (LOPAC_screen_w_protease)” value was 2.07.
